In patent US20070197452A1, “Treatment of amyloid-related diseases” (priority 2006, published 2007):
“Also recorded” adds a separate entry of the source.

How the values were obtained:
Type in all cases: in vivo, mouse
Aβ40 = target: T1, Aβ40 (Homo sapiens, UniProt P05067); assay: Cerebral Aβ40 content of hemi-brain homogenates (commercial kit); details: for brain Aβ40 levels: TgCRND8 mice with pre-existing disease, 28 days from 5 months of age
T1 construct: analyzed for Aβ40 and Aβ42 using commercially available kits; from tissue; host or cells: hemi-brain homogenates of TgCRND8 transgenic mice
Protocol: (§1) Plasma and Cerebral Aβ Content. Hemi-brain samples were homogenized in a buffered sucrose solution, followed by either 0.4% diethylamine/100 mM NaCl for soluble Aβ levels or cold formic acid for the isolation of total Aβ. After neutralization, the samples were diluted and analyzed for Aβ40 and Aβ42 using commercially available kits (BIOSOURCE International). Each hemisphere was analyzed in triplicate and the mean values±SEM reported. Western blot analyses were performed on all fractions using urea gels for Aβ species analyses. Aβ was detected using 6E10 (BIOSOURCE International) and Enhanced Chemiluminenscence (Amersham).
(§2) Plasma and cerebral Aβ content. Hemi-brain samples were homogenized in a buffered sucrose solution, followed by either a mixture of 0.4% diethylamine and 100 mM NaCl for soluble Aβ levels or cold formic acid for the isolation of total Aβ. After neutralization, samples were diluted and analyzed for Aβ40 and Aβ42 using commercially available kits (Biosource International). Each hemisphere was analyzed in triplicate and the mean±s.e.m. was reported. Western blot analyses were carried out on all fractions using urea gels for Aβ species analyses. Aβ was detected using 6E10 (Biosource International).

Aβ42 = target: T2, Aβ42 (Homo sapiens, UniProt P05067); assay: Cerebral Aβ42 content of hemi-brain homogenates (commercial kit); details: for brain Aβ42 levels: TgCRND8 mice with pre-existing disease, 28 days from 5 months of age
T2 construct: analyzed for Aβ40 and Aβ42 using commercially available kits; from tissue; host or cells: hemi-brain homogenates and plasma of TgCRND8 transgenic mice
Protocol: as §1, §2

TgCRND8 mice [1] = assay: Vascular amyloid (Aβ) burden; details: prophylactic treatment, vs untreated
Protocol: Cerebral amyloid burden. Brains were removed and one hemisphere was fixed in 4% paraformaldehyde and embedded in paraffin wax in the mid sagittal plane. To generate sets of systematic uniform random sections, 5 μm serial sections were collected across the entire hemisphere. Sets of sections at 50 μm intervals were used for analyses (10-14 sections/set). Plaques were identified after antigen retrieval with formic acid, and incubation with primary anti-Aβ antibody (Dako M-0872), followed by secondary antibody (Dako StreptABCcomplex/horseradish kit). End products were visualized with DAB and were counter-stained with luxol fast blue. Amyloid plaque burden was assessed with Leco IA-3001 image analysis software interfaced with Leica microscope and Hitachi KP-M1U CCD video camera. Openlab imaging software (Improvision, Lexington, Mass.) was then used to convert micrographs to binary images for plaque number and plaque area determinations. Vascular amyloid burden was defined as amyloid originating from or surrounding blood vessels and was analysed similarly.
Cerebral Aβ burden. Brains were removed and fixed one hemisphere from each in 4% paraformaldehyde and embedded in paraffin wax in the midsagittal plane. Sets of sections at […] intervals for analyses (10-14 sections per set) were used. Plaques with primary Aβ-specific antibody (Dako M-0872) were identified and visualized with DAB. AP plaque burden was assessed with Openlab imaging software (Improvision) and used to convert micrographs to binary images for determinations of plaque number and plaque area. Vascular Aβ burden was defined as Aβ plaques originating from or surrounding blood vessels and was analyzed similarly.
Cerebral Aβ burden. Brains were removed and one hemisphere was fixed in 4% paraformaldehyde and embedded in paraffin wax in the mid sagittal plane. […] Aβ plaque burden was assessed with Leco IA-3001 image analysis software interfaced with Leica microscope and Hitachi KP-M1U CCD video camera. […] Vascular Aβ burden was defined as Aβ plaques originating from or surrounding blood vessels and was analyzed similarly.

TgCRND8 mice [2] = assay: Gliosis quantitation (GFAP astrocytes, CD68 microglia); details: prophylactic treatment; for astrogliosis (percent brain area covered): 4 and 6 months of age; for microgliosis / microglial activation (percent brain area covered): 6 months of age
Protocol: Gliosis Quantitation. Five randomly selected, evenly spaced, sagittal sections were collected from paraformaldehyde-fixed and frozen hemispheres of treated and control mice. Sections were immunolabelled for astrocytes with anti-rat GFAβ IgG2a (Dako; diluted 1:50) and for microglia with anti-rat CD68 IgG2b (Dako; 1:50). Digital images were captured using a Coolsnap digital camera (Photometrics, Tuscon, Ariz.) mounted to a Zeiss, Axioscope 2 Plus microscope. Images were analysed using Openlab 3.08 imaging software (Improvision, Lexington Mass.). Quantification of gliosis. Five randomly selected, evenly spaced sagittal sections from paraformaldehyde-fixed and frozen hemispheres of treated and control mice were collected. Sections were immunolabeled for astrocytes with an antibody against rat GFAβ IgG2a (Dako; diluted 1:50) and for microglia with an antibody to rat CD68 IgG2b (Dako; 1:50). Digital images were captured using a Coolsnap digital camera (Photometrics) mounted to a Zeiss, Axioscope 2 Plus microscope. Images were analyzed using Openlab 3.08 imaging software (Improvision).

TgCRND8 mice [3] = assay: Survival census (Kaplan-Meier); details: prophylactic treatment, vs untreated, n=35 per group
Protocol: Survival Census: The probability of survival was assessed by the Kaplan-Meier technique, computing the probability of survival at every occurrence of death, thus making it suitable for small sample sizes. For the analyses of survival, 35 mice were used for each treatment group. The Tarone-Ware test was used to assess effects of treatments.
Survival census. The probability of survival was assessed using the Kaplan-Meier technique, computing the probability of survival at every occurrence of death, thus making it suitable for small sample sizes. For the analyses of survival, 35 mice were used for each treatment group. The Tarone-Ware test was used to assess effects of treatments.

[4] = TgCRND8 mice, prophylactic treatment, 4 months of age

T1 sequence (P05067 672-711 limits assumed): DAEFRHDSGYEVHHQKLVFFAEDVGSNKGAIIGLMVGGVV
T2 sequence (P05067 672-713 limits assumed): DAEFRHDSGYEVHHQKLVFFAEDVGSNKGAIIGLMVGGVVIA

SMILES	brain Aβ40 levels (Aβ40)	brain Aβ42 levels (Aβ42)	brain area covered by cerebrovascular Aβ (TgCRND8 mice [1])	mean size of cerebrovascular deposits (TgCRND8 mice [1])	astrogliosis (percent brain area covered) (TgCRND8 mice [2])	astrogliosis (percent brain area covered) (TgCRND8 mice [2]; listed as AZD-103)	astrogliosis (percent brain area covered) (TgCRND8 mice [2]; listed as Scyllo-cyclohexanehexol)	microgliosis / microglial activation (percent brain area covered) (TgCRND8 mice [2])	microgliosis / microglial activation (percent brain area covered) (TgCRND8 mice [2]; listed as AZD-103)	survival (Kaplan-Meier cumulative survival) (TgCRND8 mice [3])	survival (Kaplan-Meier cumulative survival) (TgCRND8 mice [3]; listed as AZD-103)	reduction of brain Aβ40 (range given for both Aβ40 and Aβ42) (Aβ40; [4])	reduction of brain Aβ42 (range given for both Aβ40 and Aβ42) (Aβ42; [4])	total vascular Aβ load / vascular Aβ deposits (TgCRND8 mice [1])	astrogliosis (percent brain area covered) (TgCRND8 mice [2]; listed as AZD-102)	astrogliosis (percent brain area covered) (TgCRND8 mice [2]; listed as Epi-cyclohexanehexol)	microgliosis / microglial activation (percent brain area covered) (TgCRND8 mice [2]; listed as AZD-102)	microgliosis / microglial activation (percent brain area covered) (TgCRND8 mice [2]; listed as Epi-cyclohexanehexol)	survival (Kaplan-Meier cumulative survival) (TgCRND8 mice [3]; listed as AZD-102)	survival (Kaplan-Meier cumulative survival) (TgCRND8 mice [3]; listed as Epi-cyclohexanehexol)
OC1C(O)C(O)C(O)C(O)C1O (stereo not drawn) [scyllo-cyclohexanehexol, 1,3,5/2,4,6-(scyllo-) cyclohexanehexol]	reduced levels	reduced levels	reduced brain area covered by cerebrovascular Aβ	reduced mean size of cerebrovascular deposits	decreased astrogliosis much more efficiently	decreased the astrogliotic response to a greater extent; also recorded: significantly decreased	decreased the astrogliotic response to a greater extent than epi-cyclohexanehexol; also recorded: significantly decreased	attenuated microglial activation; also recorded: decreased the percent brain area covered with microgliosis	decreased the percent brain area covered with microgliosis	accelerated mortality was reversed; also recorded: increased survival	increased survival	–	–	–	–	–	–	–	–	–
OC1C(O)C(O)C(O)C(O)C1O (stereo not drawn) [epi-cyclohexanehexol, 1,2,3,4,5/6-(epi-) cyclohexanehexol, reference compound]	no significant impact; also recorded: no significant effect	no significant impact; also recorded: no significant effect	–	–	decreased the percent brain area covered in astrogliosis	–	–	decreased the percent brain area covered with microgliosis	–	–	–	22-62 % reduction	22-62 % reduction	no change	decreased the percent brain area covered in astrogliosis; also recorded: decrease in astrogliosis	decreased the astrogliotic response; also recorded: decrease in astrogliosis	decreased the percent brain area covered with microgliosis	no effect on microglial activation	did not significantly improve survival	did not significantly improve survival
